9 compounds from patent publication US8664261B2, “Organic compounds having cooling properties” (Givaudan S.A., priority 2009, dated 2014) can be followed below.

Assay [1] concerns panelists. Briefly: Application in toothpaste: duration of perceived cooling sensation after brushing. It counts as in vivo. As to conditions: 0.10 g of 10% ethanol solution of compound + 0.03 g saccharin in 9.96 g opaque toothgel base; teeth brushed, mouth rinsed with water. How it is done:
0.10 g of a 10% solution in ethanol of a compound of formula (I) listed in Table 4 below and 0.03 g saccharin were mixed in 9.96 g of an opaque toothgel base. A piece of the thus prepared toothpaste was put on a toothbrush and a panelist's teeth were brushed. The mouth was rinsed with water and the water spat out. A long lasting cooling sensation was felt by the panelist in all areas of the mouth. The cooling sensation was perceived for up to 60 min (see Table 5).

The subject of assay [2] is panelists. Briefly: Cooling intensity: panelists taste aqueous solutions, compared with menthol at 2 ppm. The class given is in vivo. Conditions: aqueous solution with cooling intensity similar to or slightly higher than a solution of menthol at 2 ppm; tasted by small group of panelists.

For the compound `Cc1[nH]c2ccccc2c1CCNC(=O)[C@@H]1C[C@H](C)CC[C@H]1C(C)C` [Example 2I, (1R,2S,5R)-2-isopropyl-5-methyl-N-(2-(2-methyl-1H-indol-3-yl)ethyl)cyclohexane-carboxamide], the Perceived cooling sensation in the assay on panelists [1] is listed as 60 min.

For `CC1CCC(C(C)C)C(O)C1` (stereo not drawn) [I-Menthol, reference compound], in the assay with panelists [2], the Concentration is 2.0 ppm.

For `CC(C)[C@@H]1CC[C@@H](C)C[C@H]1C(=O)NCCc1ccccn1` [(1R,2S,5R)-2-isopropyl-5-methyl-N-(2-(pyridin-2-yl)ethyl)cyclohexanecarboxamide, reference compound], in the assay on panelists [2], the Concentration was 0.02 ppm.

As for `CC(Cc1cccnc1)NC(=O)[C@@H]1C[C@H](C)CC[C@H]1C(C)C` (stereo partly drawn) [Example 1, (1R,2S,5R)-2-isopropyl-5-methyl-N-(1-(pyridin-3-yl)propan-2-yl)cyclohexanecarboxamide], the Concentration with panelists [2] was 0.01 ppm. For the same compound, the Perceived cooling sensation in the assay with panelists [1] is on record as 30 min.

In the assay on panelists [2], `CC(C)[C@@H]1CC[C@@H](C)C[C@H]1C(=O)Nc1ccc(CC#N)cc1` [(1R,2S,5R)-N-(4-(cyanomethyl)phenyl)-2-isopropyl-5-methylcyclohexanecarboxamide, reference compound] returned a Concentration of 0.2 ppm.

With `CC(C)[C@@H]1CC[C@@H](C)C[C@H]1C(=O)NCCc1ncc[nH]1` [Example 2H, (1R,2S,5R)-N-(2-(1H-imidazol-2-yl)ethyl)-2-isopropyl-5-methlycyclohexane-carboxamide], in the assay with panelists [2], the Concentration is recorded as 0.2 ppm. For the same compound, the Perceived cooling sensation with panelists [1] amounted to 40 min.

Take `CC(C)[C@@H]1CC[C@@H](C)C[C@H]1C(=O)NCCn1ccc2ccccc21` [Example 2J, (1R,2S,5R)-N-(2-(1H-indol-1-yl)ethyl)-2-isopropyl-5-methylcyclohexanecarboxamide]: the Concentration with panelists [2] is 0.002 ppm.

In the assay with panelists [2], `CCNC(=O)C1CC(C)CCC1C(C)C` (stereo not drawn) [N-ethyl p-menthanecarboxamide, reference compound] registered a Concentration of 1.5 ppm.

In turn, `CC(Cc1ccsc1)NC(=O)[C@@H]1C[C@H](C)CC[C@H]1C(C)C` (stereo partly drawn) [Example 2M, (1R,2S,5R)-2-isopropyl-5-methyl-N-(1-(thiophen-3-yl)propan-2-yl)cyclohexane-carboxamide] displayed a Concentration in the assay with panelists [2] of 0.002 ppm. The Perceived cooling sensation in the assay on panelists [1] is on record as 40 min.
